The values below come from patent US9815854B2, “3-(3H-imidazo[4,5-B]pyridin-2-yl)-1H-pyrazolo[3,4-C]pyridine and therapeutic uses thereof” (Samumed, LLC, priority 2014, dated 2017).

The test system of experiment [1] is Wnt activity (Sp5-Luc reporter, TCF/LEF binding sites) in SW480 colon carcinoma cells. In words: Sp5-Luc Wnt reporter gene screening assay in SW480 colon carcinoma cells. The settings on record: Homo sapiens. Type of experiment: cell-based, human. In a few lines: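 SW480 cells stably transduced with a lentiviral luciferase reporter driven by a Sp5 promoter with eight TCF/LEF sites were plated at 10,000/well in 10% FCS medium. Luminescence was normalised to DMSO and IC50 derived by four-parameter fit.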
In general terms: Reporter assays use an easily measured gene product as a stand-in for the process of interest.

Experiment [2] deals with primary human fibroblasts derived from IPF patients (LL29 cells). Nature of the experiment: Inhibition of the fibrotic process in TGF-β1-treated primary human fibroblasts from IPF patients (αSMA staining). Type of experiment: cell-based. The settings on record: Fibroblast, 96 h, TGF-β1 20 ng/mL, 4 days, read-out: Inhibition of fibrosis EC50. The method, boiled down: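 IPF-derived LL29 lung fibroblasts, 1,500 per well in F12 with 1% FBS, treated with compound (10 μM to […], 0.1% DMSO) and TGF-β1 20 ng/mL for 4 days at 37 °C. αSMA-positive live cells imaged and normalised to TGF-β1 controls; EC50 by nonlinear regression over triplicate wells.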

Experiment [3] has as its system primary human mesenchymal stem cells (hMSCs). Nature of the experiment: Chondrogenesis induction screen in primary human mesenchymal stem cells (nodule imaging, Rhodamine B/Nile Red). In kind it is cell-based. The settings on record: 6 days; for EC (100% of TGF-b3 activity): Homo sapiens, Mesenchymal stem cells, 144 h, concentration required to induce chondrogenesis equivalent to TGF-β3 (10 ng/mL), read-out: Conc (nM) of 100% TGF-β3 activity; for Max. Activity as % TGF-β3 activity: TGF-β3 (10 ng/mL) positive control. Here is the method:
The above synthesized compounds were screened using primary human mesenchymal stem cells (hMSCs) to determine their ability to induce chondrogenesis (process by which cartilage is developed).
Human Mesenchymal Stern Cell Culture: Primary human mesenchymal stem cells (hMSCs) were purchased from Lonza (Walkersville, Md.) and expanded in Mesenchymal Stem Cell Growth Media (Lonza). Cells between passage 3 and 6 were used for the experiments.
Compound Screening: Each compound was dissolved in DMSO as a 10 mM stock and used to prepare compound source plates. Serial dilution (1:3, 6-point dose-response curves from 2700 nM to 10 nM) and compound transfer was performed using the ECHO 550 (Labcyte, Sunnyvale, Calif.) into 96-well clear bottom assay plates (Greiner Bio-One) with appropriate DMSO backfill for a final DMSO concentration of 0.03%. hMSCs were plated at 20,000 cells/well in 250 μL/well incomplete Chondrogenic induction Medium (Lonza; DMEM, dexamethasone, ascorbate, insulin-transferrin-selenium [ITS supplement], gentamycin-amphotericin [GA-1000], sodium pyruvate, proline and L-glutamine). TGF-β3 (10 ng/mL) was used as a positive control for differentiation while negative control wells were treated with 75 nL DMSO for normalization and calculating EC50 values. Cells were incubated at 37° C. and 5% CO2 for 6 days. To image chondrogenic nodules, the cells were fixed using 4% formaldehyde (Electron Microscopy Sciences), and stained with 2 μg/mL Rhodamine B (Sigma-Aldrich) and 20 μM Nile Red (Sigma-Aldrich) [Johnson K., et.al, A Stem Cell-Based Approach to Cartilage Repair, Science, (2012), 336(6082), 717-721]. The nodules imaged (4 images per well at 4× magnification) by excitation at 531 nm and emission at 625 nm and quantified using the CellInsight CX5 (Thermo Scientific). Number of nodules in each well was normalized to the average of 3 DMSO treated wells on the same plate using Excel (Microsoft Inc.). The normalized averages (fold change over DMSO) of 3 replicate wells for each compound concentration were calculated. Due to solubility limitations of some of the compounds, curve fitting was incomplete leading to inaccurate EC50 determinations.
Using TGF-β3 as a positive control, the concentration of test compounds required to induce equivalent levels of chondrogenesis is reported. In addition, the maximum activity of each compound and the respective dose that each compound reached maximum chondrogenesis activity is reported.

As for `Fc1cccc(-c2ccnc3[nH]c(-c4n[nH]c5cnc(-c6cncc(CN7CCC(F)(F)C7)c6)cc45)nc23)c1` [Compound 25, 5-(5-((3,3-Difluoropyrrolidin-1-yl)methyl)pyridin-3-yl)-3-(7-(3-fluorophenyl)-3H-imidazo[4,5-b]pyridin-2-yl)-1H-pyrazolo[3,4-c]pyridine], the IC50 (usually the concentration at which inhibition is half-maximal) in experiment [1] amounted to 22.1 nM. In addition, the 50% effective concentration (EC50) – broadly, the concentration at which the effect is half-maximal – in experiment [2] was 20 nM. The EC (100% of TGF-b3 activity) in experiment [3] was found to be 112 nM.

`CC(C)Nc1cncc(-c2cc3c(-c4nc5c(-c6ccc(F)cc6)ccnc5[nH]4)n[nH]c3cn2)c1` [Compound 38, 5-(3-(7-(4-Fluorophenyl)-3H-imidazo[4,5-b]pyridin-2-yl)-1H-pyrazolo[3,4-c]pyridin-5-yl)-N-isopropylpyridin-3-amine] yielded a 50% inhibitory concentration (IC50) in experiment [1] of 10.3 nM. Moreover, in experiment [2], the EC50 turned out to be 34 nM. Further, in experiment [3], the “Max. Activity as % TGF-β3 activity” value was 300% and the EC (100% of TGF-b3 activity) was 74.9 nM.

`CC(C)(C)CC(=O)Nc1cncc(-c2cc3c(-c4nc5c(-c6ccccc6F)ccnc5[nH]4)n[nH]c3cn2)c1` [Compound 68, N-(5-(3-(7-(2-Fluorophenyl)-3H-imidazo[4,5-b]pyridin-2-yl)-1H-pyrazolo[3,4-c]pyridin-5-yl)pyridin-3-yl)-3,3-dimethylbutanamide] came in with a 50% inhibitory concentration (IC50) in experiment [1] of 24.4 nM. For the same compound, the EC50 in experiment [2] worked out at 90 nM. In addition, the EC (100% of TGF-b3 activity) in experiment [3] was found to be 9.3 nM.

In experiment [1], `FC1(F)CCN(Cc2cncc(-c3cc4c(-c5nc6c(N7CCCCC7)ccnc6[nH]5)n[nH]c4cn3)c2)C1` [Compound 181, 5-(5-((3,3-Difluoropyrrolidin-1-yl)methyl)pyridin-3-yl)-3-(7-(piperidin-1-yl)-3H-imidazo[4,5-b]pyridin-2-yl)-1H-pyrazolo[3,4-c]pyridine] showed a half-inhibitory concentration (IC50) of 16.7 nM. For the same compound, in experiment [2], the EC50 came out at 53 nM. For the same compound, the EC (100% of TGF-b3 activity) in experiment [3] came out at 25.6 nM.

For the compound `c1cncc(-c2cc3c(-c4nc5cccnc5[nH]4)n[nH]c3cn2)c1` [Compound 238], the concentration for half-maximal inhibition (IC50) in experiment [1] is 16.1 nM. Besides, the EC50 in experiment [2] came to 369 nM. For the same compound, in experiment [3], the “Max. Activity as % TGF-β3 activity” value turned out to be 30% and the EC (100% of TGF-b3 activity) was determined as 113 nM.

In the case of `CC(C)(C)C(=O)Nc1cncc(-c2cc3c(-c4nc5c(-c6ccsc6)ccnc5[nH]4)n[nH]c3cn2)c1` [Compound 268, N-(5-(3-(7-(Thiophen-3-yl)-3H-imidazo[4,5-b]pyridin-2-yl)-1H-pyrazolo[3,4-c]pyridin-5-yl)pyridin-3-yl)pivalamide], the half-inhibitory concentration (IC50) in experiment [1] amounted to 9.7 nM. Also, the EC50 in experiment [2] is 141 nM. The EC (100% of TGF-b3 activity) in experiment [3] stood at 25.8 nM.

Turning to `CCCC(=O)Nc1cncc(-c2cc3c(-c4nc5c(-c6cccs6)ccnc5[nH]4)n[nH]c3cn2)c1` [Compound 329, N-(5-(3-(7-(Thiophen-2-yl)-3H-imidazo[4,5-b]pyridin-2-yl)-pyrazolo[3,4-c]pyridin-5-yl)pyridin-3-yl)butyramide], the concentration for half-maximal inhibition (IC50) in experiment [1] turned out to be 17.5 nM. Besides, the EC50 in experiment [2] amounted to 34 nM. Besides, in experiment [3], the “Max. Activity as % TGF-β3 activity” value came to 300% and the EC (100% of TGF-b3 activity) was found to be 110 nM.

In experiment [1], `CCCC(=O)Nc1cncc(-c2cc3c(-c4nc5c(-c6ccc(C)s6)ccnc5[nH]4)n[nH]c3cn2)c1` [Compound 381, N-(5-(3-(7-(5-Methylthiophen-2-yl)-3H-imidazo[4,5-b]pyridin-2-yl)-1H-pyrazolo[3,4-c]pyridin-5-yl)pyridin-3-yl)butyramide] displayed a half-maximal inhibitory concentration (IC50) of 9.5 nM. Moreover, the EC50 in experiment [2] is 18 nM. For the same compound, the EC (100% of TGF-b3 activity) in experiment [3] worked out at 59.6 nM.

Consider `Cc1ccncc1-c1cc2c(-c3nc4c(-c5cc(F)cc(CNS(C)(=O)=O)c5)ccnc4[nH]3)n[nH]c2cn1` [Compound 421, N-(3-Fluoro-5-(2-(5-(4-methylpyridin-3-yl)-1H-pyrazolo[3,4-c]pyridin-3-yl)-3H-imidazo[4,5-b]pyridin-7-yl)benzyl)methanesulfonamide], for which the IC50 in experiment [1] turned out to be 23.3 nM. In experiment [3], the “Max. Activity as % TGF-β3 activity” value is given as 30% and the EC (100% of TGF-b3 activity) was found to be 70 nM.

With `Fc1cccc(-c2ccnc3[nH]c(-c4n[nH]c5cnc(-c6cn[nH]c6)cc45)nc23)c1` [Compound 939, 3-(7-(3-Fluorophenyl)-3H-imidazo[4,5-b]pyridin-2-yl)-5-(1H-pyrazol-4-yl)-1H-pyrazolo[3,4-c]pyridine], in experiment [1], the IC50 is 198 nM. In addition, the EC50 in experiment [2] came to 14 nM.

For `Cn1cc(-c2cc3c(-c4nc5c(-c6cccc(F)c6)ccnc5[nH]4)n[nH]c3cn2)cn1` [Compound 940, 3-(7-(3-Fluorophenyl)-3H-imidazo[4,5-b]pyridin-2-yl)-5-(1-methyl-1H-pyrazol-4-yl)-1H-pyrazolo[3,4-c]pyridine], the concentration for half-maximal inhibition (IC50) in experiment [1] is 405 nM. Moreover, in experiment [2], the EC50 was found to be 353 nM.

Regarding `Cc1ncc(-c2cc3c(-c4nc5c(-c6cccc(F)c6)ccnc5[nH]4)n[nH]c3cn2)n1C` [Compound 941], the concentration for half-maximal inhibition (IC50) in experiment [1] was above 10000 nM. In addition, in experiment [2], the EC50 came to 1000 nM.

`NC1CN(c2cncc(-c3cc4c(-c5nc6c(-c7cccc(F)c7)ccnc6[nH]5)n[nH]c4cn3)n2)C1` [Compound 942, 1-(6-(3-(7-(3-Fluorophenyl)-3H-imidazo[4,5-b]pyridin-2-yl)-1H-pyrazolo[3,4-c]pyridin-5-yl)pyrazin-2-yl)azetidin-3-amine]: the IC50 in experiment [1] was determined as 1490 nM. Further, the EC50 in experiment [2] amounted to 1470 nM.

`O=C(CC1CCNCC1)Nc1cncc(-c2cc3c(-c4nc5c(-c6cccc(F)c6)ccnc5[nH]4)n[nH]c3cn2)c1` [Compound 945] showed an IC50 in experiment [1] of 463 nM. Also, the EC50 in experiment [2] was 40 nM. Besides, in experiment [3], the EC (100% of TGF-b3 activity) was found to be 54.7 nM.

In the case of `CN(C)CCOc1cncc(-c2cc3c(-c4nc5c(-c6cccc(F)c6)ccnc5[nH]4)n[nH]c3cn2)c1` [Compound 947, 2-((5-(3-(7-(3-Fluorophenyl)-3H-imidazo[4,5-b]pyridin-2-yl)-1H-pyrazolo[3,4-c]pyridin-5-yl)pyridin-3-yl)oxy)-N,N-dimethylethan-1-amine], in experiment [1], the half-maximal inhibitory concentration (IC50) amounted to 1600 nM. In addition, the EC50 in experiment [2] was at least 9990 nM.

With `COc1cncc(-c2cc3c(-c4nc5c(-c6cccc(F)c6)ccnc5[nH]4)n[nH]c3cn2)c1` [Compound 948, 3-(7-(3-Fluorophenyl)-3H-imidazo[4,5-b]pyridin-2-yl)-5-(5-methoxypyridin-3-yl)-1H-pyrazolo[3,4-c]pyridine], in experiment [1], the IC50 is 850 nM. In experiment [2], the EC50 turned out to be 632 nM.

For `Oc1cncc(-c2cc3c(-c4nc5c(-c6cccc(F)c6)ccnc5[nH]4)n[nH]c3cn2)c1` [Compound 949, 5-(3-(7-(3-Fluorophenyl)-3H-imidazo[4,5-b]pyridin-2-yl)-1H-pyrazolo[3,4-c]pyridin-5-yl)pyridin-3-ol], the 50% inhibitory concentration (IC50) in experiment [1] came to 111 nM. For the same compound, the 50% effective concentration (EC50) in experiment [2] was determined as 31 nM. In addition, in experiment [3], the “Max. Activity as % TGF-β3 activity” value was 100% and the EC (100% of TGF-b3 activity) is 143 nM.

`Fc1cccc(-c2ccnc3[nH]c(-c4n[nH]c5cnc(-c6cnccn6)cc45)nc23)c1` [Compound 954, 3-(7-(3-Fluorophenyl)-3H-imidazo[4,5-b]pyridin-2-yl)-5-(pyrazin-2-yl)-1 H-pyrazolo[3,4-c]pyridine] displayed an IC50 in experiment [1] of 661 nM. Moreover, the EC50 in experiment [2] was at least 9990 nM.

In experiment [1], `COc1cc(F)cc(-c2ccnc3[nH]c(-c4n[nH]c5cnc(-c6cncc(NC(=O)CC(C)C)c6)cc45)nc23)c1` [Compound 1394, N-(5-(3-(7-(3-Fluoro-5-methoxyphenyl)-3H-imidazo[4,5-b]pyridin-2-yl)-1H-pyrazolo[3,4-c]pyridin-5-yl)pyridin-3-yl)-3-methyl butanamide] had an IC50 above 10000 nM. In addition, in experiment [2], the EC50 was 495 nM.
